# Data published in patent publication US10551393B1, “High-throughput, in vivo screening platform for modulators of Apolipoprotein B” (THE JOHNS HOPKINS UNIVERSITY, priority 2016, dated 2020).
# Entries after “also recorded” stand apart in the source; their conditions may differ.
# Key:
# [1] = system: ApoB-containing lipoprotein particles; assay: In-gel luciferase assay for lipoprotein size distribution; type: in vivo, zebrafish; details: for lipoprotein particle size distribution: larval zebrafish homogenate, polyacrylamide gel, in-gel luciferase
# Method: To evaluate whether introduction of the luciferase tag disrupted protein function, individual larvae carrying the reporter construct were homogenized and lipoprotein classes were separated on a 3% PAGE gel (see Singh et al. Lipids in Health and Disease 7:47, 2008). An in-gel luciferase assay was then performed to detect the NanoLuc® luciferase reporter present in the gel (FIG. 2A), and compared to the results obtained from adult zebrafish serum that was stained using lipophilic fluorescent dye (FIG. 2B). Encouragingly, essentially all of the signal was present in the expected VLDL, IDL, and LDL portions of the gel, which is consistent with the primary role of ApoB as an obligate structural component of lipid-rich lipoproteins. Additionally, this method has sufficient sensitivity and resolution to detect LDL subclasses, which are seen as deviations from the normal distribution in the plot profile. […] Additionally, signal from the ApoB-luciferase fusion is responsive to known chemical and physiological modulators of ApoB (MTP inhibition and fasting).
# The in-gel luciferase assay developed in our lab provides the opportunity to rapidly and sensitively detect changes in lipoprotein size distribution using individual larval zebrafish. Following a week of high-fat diet with or without treatment of test compound, larval zebrafish are homogenized and lipoproteins are separated on a 3% native PAGE gel and imaged using the in-gel luciferase reporter. This enables rapid assessment of lead compounds on effects of the potentially clinically important lipoprotein size distribution phenotype. […]
# In addition to its utility as a high-throughput compatible readout for measuring levels of Apolipoprotein B, the described ApoB-NanoLuc® luciferase reporter can also be used to measure the size distribution and localization of ApoB-containing particles in zebrafish larvae. Lipoproteins separated using polyacrylamide gel electrophoresis can be sensitively detected in individual larval homogenates by immersing the gel in the NanoLuc® luciferase substrate. […]
# [2] = system: firefly luciferase internal control reporter; assay: Firefly luciferase internal control (counter-screen) of the dual luciferase assay; type: in vivo; details: preliminary screen; cutoff SSMD ±2.4
# Description: The primary screen seeks to identify compounds that lower ApoB levels, which is likely to identify numerous false positives that are cytotoxic or inhibit fundamental cellular processes such as transcription or translation. The inclusion of a counter-screen helps identify compounds that have strong effects on the target phenotype without causing major disruptions in other cellular processes. The pd75 zebrafish line carries a ubiquitous promoter driving firefly luciferase as well as the mCherry fluorescent reporter, which can be used to detect developmental delay or cytotoxicity in any organ. […]
# The Nano-Glo® dual luciferase assay provides the means to independently measure firefly and NanoLuc® luciferase in a single reaction enabling parallel measurement of the primary screen reaction and counter-screen reaction in a high-throughput compatible add-and-read format. Consistent measurement of luciferase activity requires homogenous sample inputs, so we have developed homogenization methods using a microplate sonicator that exceeds the throughput capacity of the plate reader.
# The NanoLuc® luciferase reporter uses a different substrate than firefly luciferase, allowing a second luciferase reporter to be measured in parallel as an internal control. […]
# [3] = system: ApoB; details: cited from earlier work
# [4] = system: ApoB-NanoLuc® luciferase reporter; assay: ApoB-NanoLuc luciferase reporter assay in transgenic zebrafish larvae (primary screen); type: in vivo
# Method: Of the two existing inhibitors of ApoB, lomitapide is the most appropriate for use as a proof of principle because it is a small molecule. Conversely, mipomersen is an injectable antisense biologic that is not suitable for comparison to small-molecule inhibitors and cannot be used a high-throughput manner. Larval zebrafish were treated with serial dilutions of the lomitapide for 36 hours from 2.5 to 4 dpf.
# There are detailed protocols for the development and execution of a high-throughput screen using live vertebrate zebrafish (26, 27). The high-throughput screen uses transgenic zebrafish that carry both an engineered luciferase reporter (NanoLuc® luciferase) fused to ApoB which serves as the primary readout, and a second ubiquitously expressed firefly luciferase reporter that is used as an internal control. Transgenic larvae are raised to 3 days post-fertilization (dpf) and automatically sorted and dispensed into 96-well plates containing various dilutions of test compound. Following 48-hour incubation with test and control compounds, the zebrafish are homogenized and assayed sequentially for Firefly and NanoLuc® luciferase signal using the automated robotics platform and plate reader. Hit-calling software is used to select putative hits, which are validated through repetition and orthogonal screening. The first iteration of the screen uses a modest-sized library (3,000 compounds), and empirical determination of the optimal sample size and number of titration points required for screening enables an increase in throughput for the following iteration of the screen, which screens a 30,000 compound library.
# Statistical resampling of positive control treatments can be used to estimate the appropriate sample size for HTS assays given type I and type II error rate thresholds and a desired cutoff for effect size (27). Assuming a type II error rate of 0.01 and setting the hit selection cutoff to 50% the magnitude of positive control treatment generates a log-linear relationship between sample size and type I error rate. […] Besides serving as a metric for assay quality, the SSMD score can also be used to determine hit cutoff criteria. This statistical test compares the averages between the negative control and each experimental sample, and then adjusts this difference based on the median absolute deviation (MAD) of each sample, such that samples with high variability are penalized and produce a poor SSMD score even if there is a large difference between the means. In positive control treatments, lomitapide produced an SSMD score of −4.5, reflecting a very strong control assay. The scaling factor formula can be used to determine the SSMD cutoff based on the desired magnitude relative to the positive control. A compound with a 50% effect size relative to MTP was chosen as a physiologically relevant effect size, which would produce an SSMD score of −2.7.
# Day 1: Embryo production and collection—zebrafish homozygous for the ApoB-NanoLuc® luciferase and ubi:Fluc reporters are induced to spawn using custom mass-breeding chambers. Eggs are collected hourly from 9 AM to 2 PM. Embryos are maintained in petri dishes at a density of 5 fish/mL of embryo medium (E3). Day 2: Raising embryos—Embryos are maintained in E3 (1 dpf). Day 3: Raising embryos and preparing drug plates—Embryos are maintained in embryo medium (2 dpf). […]
smiles,measurement,setting,value
O=C(NC1CCN(CCCCC2(C(=O)NCC(F)(F)F)c3ccccc3-c3ccccc32)CC1)c1ccccc1-c1ccc(C(F)(F)F)cc1 [lomitapide],ApoB levels,"[1]; acute treatment, larval zebrafish, 3% native PAGE",significant reduction
same,lipoprotein particle size distribution,[1],unable to create large lipoprotein particles; also recorded: particle size and number are greatly reduced; also recorded: did not have large lipoprotein particles
same,lipoprotein particle size distribution,[1]; listed as Lomitapide,induced the formation of very small lipoprotein particles
same,effect on internal control reporter (firefly luciferase),[2],without affecting the internal control reporter
same,ApoB levels in humans,[3],significant reduction
same,reporter activity relative to vehicle-treated controls,"[4]; larval zebrafish, serial dilutions, 36 hours from 2.5 to 4 dpf",dose-dependent reduction
same,SSMD score (ApoB-NanoLuc),"[4]; positive control treatments, hit cutoff −2.7",−4.5
same,NanoLuc luciferase levels,"[4]; preliminary screen, dose-response, hit selection cutoff −2.7",dose-dependent decrease
same,change in ApoB (ApoB-NanoLuc),[4]; preliminary validation screen of lipid/lipoprotein metabolism compounds,significant change in ApoB
same,ApoB-NanoLuc luciferase levels in transgenic larvae,[4]; transgenic larvae,significantly lowered
